According to ChEMBL document CHEMBL4138146, “A Schmidt rearrangement-mediated synthesis of novel tetrahydro-benzo[1,4]diazepin-5-ones as potential anticancer and antiprotozoal agents” (Eur J Med Chem, 2017):

Assays:
Type in all cases: functional
NCI/ADR-RES [1] = assay: Growth inhibition of human NCI/ADR-RES cells assessed as cell growth at 10^-7 M incubated for 48 hrs by sulforhodamine B assay relative to control; conditions: read-out: Activity
COLO 205 [2] = assay: Growth inhibition of human COLO205 cells assessed as cell growth at 10^-8 M incubated for 48 hrs by sulforhodamine B assay relative to control; conditions: COLO 205, 48 h, read-out: Activity
CCRF-CEM = assay: Growth inhibition of human CCRF-CEM cells assessed as cell growth at 10^-4 M incubated for 48 hrs by sulforhodamine B assay relative to control; conditions: read-out: Activity
A498 = assay: Growth inhibition of human A498 cells assessed as cell growth at 10^-7 M incubated for 48 hrs by sulforhodamine B assay relative to control; conditions: A498, 48 h, read-out: Activity
NCI-H522 = assay: Growth inhibition of human NCI-H522 cells assessed as cell growth at 10^-7 M incubated for 48 hrs by sulforhodamine B assay relative to control; conditions: NCI-H522, 48 h, read-out: Activity
SR = assay: Growth inhibition of human SR cells assessed as cell growth at 10^-7 M incubated for 48 hrs by sulforhodamine B assay relative to control; conditions: read-out: Activity
IGROV-1 = assay: Growth inhibition of human IGROV1 cells assessed as cell growth at 10^-5 M incubated for 48 hrs by sulforhodamine B assay relative to control; conditions: IGROV-1, 48 h, read-out: Activity
LOX IMVI = assay: Growth inhibition of human LOXIMVI cells assessed as cell growth at 10^-5 M incubated for 48 hrs by sulforhodamine B assay relative to control; conditions: read-out: Activity
KM12 = assay: Growth inhibition of human KM12 cells assessed as cell growth at 10^-8 M incubated for 48 hrs by sulforhodamine B assay relative to control; conditions: KM12, 48 h, read-out: Activity
SK-MEL-5 [3] = assay: Growth inhibition of human SK-MEL-5 cells assessed as cell growth at 10^-5 M incubated for 48 hrs by sulforhodamine B assay relative to control; conditions: SK-MEL-5, 48 h, read-out: Activity
RPMI-8226 = assay: Growth inhibition of human RPMI8226 cells assessed as cell growth at 10^-7 M incubated for 48 hrs by sulforhodamine B assay relative to control; conditions: RPMI-8226, 48 h, read-out: Activity
SK-MEL-5 [4] = assay: Growth inhibition of human SK-MEL-5 cells assessed as cell growth at 10^-4 M incubated for 48 hrs by sulforhodamine B assay relative to control; conditions: SK-MEL-5, 48 h, read-out: Activity
HOP-62 [5] = assay: Growth inhibition of human HOP62 cells assessed as cell growth at 10^-8 M incubated for 48 hrs by sulforhodamine B assay relative to control; conditions: HOP-62, 48 h, read-out: Activity
SF-295 = assay: Growth inhibition of human SF295 cells assessed as cell growth at 10^-8 M incubated for 48 hrs by sulforhodamine B assay relative to control; conditions: SF-295, 48 h, read-out: Activity
SNB-75 = assay: Growth inhibition of human SNB75 cells assessed as cell growth at 10^-7 M incubated for 48 hrs by sulforhodamine B assay relative to control; conditions: SNB-75, 48 h, read-out: Activity
NCI/ADR-RES [6] = assay: Growth inhibition of human NCI/ADR-RES cells assessed as cell growth at 10^-5 M incubated for 48 hrs by sulforhodamine B assay relative to control; conditions: read-out: Activity
MDA-MB-435 = assay: Growth inhibition of human MDA-MB-435 cells assessed as cell growth at 10^-7 M incubated for 48 hrs by sulforhodamine B assay relative to control; conditions: MDA-MB-435, 48 h, read-out: Activity
SF-539 = assay: Growth inhibition of human SF539 cells assessed as cell growth at 10^-5 M incubated for 48 hrs by sulforhodamine B assay relative to control; conditions: SF-539, 48 h, read-out: Activity
NCI-H322M = assay: Growth inhibition of human NCI-H322M cells assessed as cell growth at 10^-5 M incubated for 48 hrs by sulforhodamine B assay relative to control; conditions: read-out: Activity
NCI-H460 = assay: Growth inhibition of human NCI-H460 cells assessed as cell growth at 10^-4 M incubated for 48 hrs by sulforhodamine B assay relative to control; conditions: NCI-H460, 48 h, read-out: Activity
A549 = assay: Growth inhibition of human A549/ATCC cells assessed as cell growth at 10^-4 M incubated for 48 hrs by sulforhodamine B assay relative to control; conditions: A549, 48 h, read-out: Activity
COLO 205 [7] = assay: Growth inhibition of human COLO205 cells assessed as cell growth at 10^-5 M incubated for 48 hrs by sulforhodamine B assay relative to control; conditions: COLO 205, 48 h, read-out: Activity
SK-MEL-2 = assay: Growth inhibition of human SK-MEL-2 cells assessed as cell growth at 10^-8 M incubated for 48 hrs by sulforhodamine B assay relative to control; conditions: SK-MEL-2, 48 h, read-out: Activity
COLO 205 [8] = assay: Growth inhibition of human COLO205 cells assessed as cell growth at 10^-4 M incubated for 48 hrs by sulforhodamine B assay relative to control; conditions: COLO 205, 48 h, read-out: Activity
SK-OV-3 = assay: Growth inhibition of human SKOV3 cells assessed as cell growth at 10^-7 M incubated for 48 hrs by sulforhodamine B assay relative to control; conditions: SK-OV-3, 48 h, read-out: Activity
HOP-62 [9] = assay: Growth inhibition of human HOP62 cells assessed as cell growth at 10^-5 M incubated for 48 hrs by sulforhodamine B assay relative to control; conditions: HOP-62, 48 h, read-out: Activity
SW-620 = assay: Growth inhibition of human SW620 cells assessed as cell growth at 10^-8 M incubated for 48 hrs by sulforhodamine B assay relative to control; conditions: SW-620, 48 h, read-out: Activity
MCF7 = assay: Growth inhibition of human MCF7 cells assessed as cell growth at 10^-5 M incubated for 48 hrs by sulforhodamine B assay relative to control; conditions: MCF7, 48 h, read-out: Activity
EKVX = assay: Growth inhibition of human EKVX cells assessed as cell growth at 10^-6 M incubated for 48 hrs by sulforhodamine B assay relative to control; conditions: read-out: Activity
HOP-92 = assay: Growth inhibition of human HOP92 cells assessed as cell growth at 10^-6 M incubated for 48 hrs by sulforhodamine B assay relative to control; conditions: HOP-92, 48 h, read-out: Activity
786-0 = assay: Growth inhibition of human 786-0 cells assessed as cell growth at 10^-6 M incubated for 48 hrs by sulforhodamine B assay relative to control; conditions: 786-0, 48 h, read-out: Activity
SNB-19 = assay: Growth inhibition of human SNB19 cells assessed as cell growth at 10^-5 M incubated for 48 hrs by sulforhodamine B assay relative to control; conditions: SNB-19, 48 h, read-out: Activity
OVCAR-5 = assay: Growth inhibition of human OVCAR5 cells assessed as cell growth at 10^-8 M incubated for 48 hrs by sulforhodamine B assay relative to control; conditions: OVCAR-5, 48 h, read-out: Activity

What does the source list for `CCCCOc1nc2ccccc2cc1C1CNC(=O)c2ccccc2N1` (stereo not drawn)?
growth at 0.1 µM (NCI/ADR-RES [1]): 97%; growth at 0.01 µM (COLO 205 [2]): 96%; growth at 100 µM (CCRF-CEM): -17%; growth at 0.1 µM (A498): 62%; growth at 0.1 µM (NCI-H522): 107%; growth at 0.1 µM (SR): 64%; growth at 10 µM (IGROV-1): 31%; growth at 10 µM (LOX IMVI): 15%; growth at 0.01 µM (KM12): 98%; growth at 10 µM (SK-MEL-5 [3]): 10%; growth at 0.1 µM (RPMI-8226): 98%; growth at 100 µM (SK-MEL-5 [4]): -24%; growth at 0.01 µM (HOP-62 [5]): 93%; growth at 0.01 µM (SF-295): 84%; growth at 0.1 µM (SNB-75): 89%; growth at 10 µM (NCI/ADR-RES [6]): -15%; growth at 0.1 µM (MDA-MB-435): 98%; growth at 10 µM (SF-539): -12%; growth at 10 µM (NCI-H322M): 31%; growth at 100 µM (NCI-H460): -73%; growth at 100 µM (A549): -75%; growth at 10 µM (COLO 205 [7]): -43%; growth at 0.01 µM (SK-MEL-2): 96%; growth at 100 µM (COLO 205 [8]): -62%; growth at 0.1 µM (SK-OV-3): 98%; growth at 10 µM (HOP-62 [9]): 19%; growth at 0.01 µM (SW-620): 96%; growth at 10 µM (MCF7): 11%; growth at 1 µM (EKVX): 89%; growth at 1 µM (HOP-92): 62%; growth at 1 µM (786-0): 90%; growth at 10 µM (SNB-19): 38%; growth at 0.01 µM (OVCAR-5): 98%
